Results published in publication PMC5845869 (Frontiers in Microbiology, 2018).
Marks after values point to notes of the source that are not given here. Ends that are not written are not given here.

Legend:
[1] = tested on: Candida parapsilosis CBS 604; settings: LCM, 10^5 cells ml^−1, 48 h, 30°C; MIC = growth ≤ 5% (OD620)
Procedure: (§1) Susceptibility tests were performed in low ionic strength broth medium (LCM: 0.5% glucose, 0.25% yeast extract, 0.0125% peptone (w/v)) and in RPMI 1640 medium (Sigma-Aldrich, St Louis, MO, USA) supplemented with 0.03% (w/v) L-glutamine and buffered to pH 7.0 with 0.165 M 4-morpholinopropanesulfonic acid (Sigma-Aldrich, St Louis, MO, USA).
(§2) Antifungal susceptibility tests were performed with nNFAP2, rNFAP2, and sNFAP2 and its peptide fragments in LCM medium against yeast isolates (10^5 cells ml^−1) according to the broth microdilution method described by Tóth et al. ([2016]). Final drug concentration ranged from 25 to 0.098 μg ml^−1 for rNFAP2 and sNFAP2, and from 100 to 6.25 μg ml^−1 for the synthetic peptide fragments. The rNFAP2 was tested against nine yeast isolates, while the sNFAP2 and the synthetic peptide fragments against C. albicans ATCC 10231, C. krusei CBS 573, C. parapsilosis CBS 604, and S. cerevisiae SZMC 0644.
(§3) LCM plates were incubated at 30°C, while RPMI 1640 plates at 35°C for 48 h without shaking, then the absorbance (OD620) was measured with a microtiter plate reader (SPECTROstar Nano, BMG Labtech, Ortenberg, Germany) after resuspension of the cultures with pipette. The absorbance of the untreated control cultures was referred to 100% growth in each case.
(§4) All susceptibility tests were repeated at least two times in three replicates.

Candida krusei CBS 573 [2] = settings: LCM, 10^5 cells ml^−1, 48 h, 30°C; MIC = growth ≤ 5% (OD620)
Procedure: as §1, §2, §3, §4

[3] = tested on: Saccharomyces cerevisiae SZMC 0644; settings: LCM, 10^5 cells ml^−1, 48 h, 30°C; MIC = growth ≤ 5% (OD620)
Procedure: as §1, §2, §3, §4

[4] = tested on: Candida albicans ATCC 10231; settings: LCM, 10^5 cells ml^−1, 48 h, 30°C; MIC = growth ≤ 5% (OD620)
Procedure: as §1, §2, §3, §4

[5] = tested on: Candida guilliermondii CBS 566; assay: MIC, CLSI-M27A3 broth microdilution in RPMI 1640; type: cell-based; settings: RPMI 1640 pH 7.0, 10^3 cells ml^−1, 48 h, 35°C; MIC = growth ≤ 5%
Procedure: as §1
(§5) The CLSI-M27A3 broth microdilution method (Clinical and Laboratory Standards Institute, [2008]) was applied to determinate the minimal inhibitory concentrations (MIC) of FLC (Sigma-Aldrich, St Louis, MO, USA) and rNFAP2 against the Candida isolates (10^3 cells ml^−1) under clinically approved test conditions. For this experiment, the rNFAP2 stock was prepared in bidistilled water, and FLC in dimethyl sulfoxide (DMSO). The investigated concentration range was 64–0.0625 μg ml^−1 for FCL and 100–0.39 μg ml^−1 for rNFAP2.
as §3, §4

Candida glabrata CBS 138 [6] = assay: MIC, CLSI-M27A3 broth microdilution in RPMI 1640; type: cell-based; settings: RPMI 1640 pH 7.0, 10^3 cells ml^−1, 48 h, 35°C; MIC = growth ≤ 5%
Procedure: as §1, §5, §3, §4

[7] = tested on: Candida parapsilosis CBS 604; assay: MIC, CLSI-M27A3 broth microdilution in RPMI 1640; type: cell-based; settings: RPMI 1640 pH 7.0, 10^3 cells ml^−1, 48 h, 35°C; MIC = growth ≤ 5%
Procedure: as §1, §5, §3, §4

[8] = tested on: Candida lusitaniae CBS 6936; assay: MIC, CLSI-M27A3 broth microdilution in RPMI 1640; type: cell-based; settings: RPMI 1640 pH 7.0, 10^3 cells ml^−1, 48 h, 35°C; MIC = growth ≤ 5%
Procedure: as §1, §5, §3, §4

[9] = tested on: Candida albicans ATCC 10231; assay: MIC, CLSI-M27A3 broth microdilution in RPMI 1640; type: cell-based; settings: RPMI 1640 pH 7.0, 10^3 cells ml^−1, 48 h, 35°C; MIC = growth ≤ 5%
Procedure: as §1, §5, §3, §4

[10] = tested on: Candida tropicalis CBS 94; assay: MIC, CLSI-M27A3 broth microdilution in RPMI 1640; type: cell-based; settings: RPMI 1640 pH 7.0, 10^3 cells ml^−1, 48 h, 35°C; MIC = growth ≤ 5%
Procedure: as §1, §5, §3, §4

[11] = Thermal unfolding followed by ECD spectroscopy; type: physicochemical
Procedure: ECD spectroscopic measurements were performed using a Jasco-J815 spectropolarimeter (JASCO Corporation, Tokyo, Japan), in the far-UV range (185–260 nm). Protein samples were dissolved in pure H2O in approximately 0.1 mg ml^−1 concentration and measured in a 0.1 cm pathlength quartz cuvette. First, ECD spectra of samples were recorded at 25°C with a scan speed of […]. […] The system was allowed to equilibrate for 1 min before measurements were taken at each temperature point.
The obtained melting curves were fitted with an inverse sigmoidal function of which inflection point designated the melting temperature (Tm) of the native protein structure.
ECD spectra were also recorded at 95°C, the final temperature of the thermal unfolding experiments, then samples were allowed to cool and measured again after 5 min of equilibration at 25°C. The reported spectra are accumulations of 10 scans, from which the similarly recorded, corresponding solvent spectrum was subtracted. Data are given as molar ellipticities. Accurate protein sample concentrations for the corrections of ECD spectra were determined using analytical RP-HPLC.

[12] = tested on: Candida parapsilosis CBS 604; assay: Checkerboard microdilution, rNFAP2 with FLC, RPMI 1640; type: cell-based; settings: rNFAP2 combined with FLC; RPMI 1640, 10^3 cells ml^−1, 48 h, 35°C
Procedure: (§6) Antifungal synergism between rNFAP2 and FLC were investigated using the checkerboard microdilution method (Eliopoulos and Moellering, [1996]) in RPMI 1640 medium applying the drug stock preparation method and cultivation conditions described in CLSI-M27A3 document (Clinical and Laboratory Standards Institute, [2008]). […] The fractional inhibitory concentration index (FICI) as a measure of synergism and antagonism was calculated (Johnson et al., [2004]). Synergism was defined as FICI≤0.5, indifference as 0.5 < FICI ≤ 4 and antagonism was defined when FICI > 4 (Odds, [2003]).
as §3, §4

Candida krusei CBS 573 [13] = assay: as above; type: cell-based; settings: rNFAP2 combined with FLC; RPMI 1640, 10^3 cells ml^−1, 48 h, 35°C
Procedure: as §6, §3, §4

[14] = tested on: Candida albicans ATCC 10231; assay: as above; type: cell-based; settings: rNFAP2 combined with FLC; RPMI 1640, 10^3 cells ml^−1, 48 h, 35°C
Procedure: as §6, §3, §4

[15] = tested on: Schizosaccharomyces pombe SZMC 0142; assay: MIC, broth microdilution in LCM; type: cell-based; settings: 10^5 cells ml^−1, 48 h, 30°C, MIC = growth ≤ 5% (OD620)
Procedure: as §1, §2, §3, §4

[16] = tested on: Candida guilliermondii CBS 566; assay: MIC, broth microdilution in LCM; type: cell-based; settings: 10^5 cells ml^−1, 48 h, 30°C, MIC = growth ≤ 5% (OD620)
Procedure: as §1, §2, §3, §4

Candida glabrata CBS 138 [17] = assay: MIC, broth microdilution in LCM; type: cell-based; settings: 10^5 cells ml^−1, 48 h, 30°C, MIC = growth ≤ 5% (OD620)
Procedure: as §1, §2, §3, §4

[18] = tested on: Candida lusitaniae CBS 6936; assay: MIC, broth microdilution in LCM; type: cell-based; settings: 10^5 cells ml^−1, 48 h, 30°C, MIC = growth ≤ 5% (OD620)
Procedure: as §1, §2, §3, §4

[19] = tested on: Candida tropicalis CBS 94; assay: MIC, broth microdilution in LCM; type: cell-based; settings: 10^5 cells ml^−1, 48 h, 30°C, MIC = growth ≤ 5% (OD620)
Procedure: as §1, §2, §3, §4

For “IATSPYYACNCPNNCKHKKGSGCKYHSGPSDKSKVISGKCEWQGGQLNCIAT (disulfide (positions not given here)) [rNFAP2, recombinant NFAP2 produced by P. chrysogenum nfap2]”, the MIC [1] was 1.56 µg/mL, the MIC (Candida krusei CBS 573 [2]) was 12.5 µg/mL and the MIC [3] was 3.125 µg/mL. The MIC [4] was 6.25 µg/mL, the “MIC of the drug alone (a)” value [5] was 3.125 µg/mL and the “MIC of the drug alone (a)” value (Candida glabrata CBS 138 [6]) was 12.5 µg/mL. For the same sequence, the “MIC of the drug alone (a)” value [7] was 100 µg/mL, the “MIC of the drug alone (a)” value [8] was over 100 µg/mL and the “MIC of the drug alone (a)” value [9] was 200^* μg ml^−1. The “MIC of the drug alone (a)” value [10] was over 100 µg/mL, the thermal denaturation reversibility ([11]; ECD at 95°C, then re-measured after cooling, 5 min at 25°C) was “reversible” and the “Tm (melting temperature of the native protein structure)” value ([11]; ECD at 228 nm, 25 to 95°C at 1°C min^−1, approx. 0.1 mg ml^−1 in H2O, inflection of sigmoidal fit) was 75.79 °C. The “native fold remains intact up to” value ([11]; thermal unfolding followed by ECD) was “approximately 70 °C”, the “MIC of the drug in combination (c)” value [12] was 6.25 µg/mL and the “MIC of the drug in combination (c)” value (Candida krusei CBS 573 [13]) was 6.25 µg/mL. The “MIC of the drug in combination (c)” value [14] was 6.25 µg/mL, the MIC [15] was 1.56 µg/mL and the MIC [16] was 1.56 µg/mL. It also gave an MIC (Candida glabrata CBS 138 [17]) of 1.56 µg/mL, an MIC [18] of 3.125 µg/mL and an MIC [19] of 1.56 µg/mL.
